Results on 3 compounds are retold here after US5635510A, “Substituted pyrrolidin-3-yl-alkyl-piperidines” (Merrell Pharmaceuticals Inc., priority 1994, dated 1997).

One experiment relates to NK1 and NK2 receptors. Put plainly: Modulation of respiratory effects produced by capsaicin aerosol in conscious guinea pigs. The class given is in vivo, guinea pig. The procedure: (§1) In vivo experiments were performed using male Duncan Hartley guinea pigs (250-350g). Changes in conscious breathing patterns were monitored in four animals simultaneously using modified whole body plethysmography consisting of four small plexiglass boxes each connected to a reference box via Validyne DP 45-16 differential pressure transducers. The 4 boxes were equipped with an air supply line (also used for aerosol delivery) and an exhaust air line. Supply and exhaust lines were of the same length and narrow bore and arose from a common supply chamber and vented to a common exhaust chamber. This system was used to ensure that fluctuations in supply air and atmospheric pressure would remain in phase and be eliminated from the net signal by the differential pressure transducers. The analog pressure signals were digitalized via a Data Translation DT2821 A to D board. Data were collected at a rate of 100 samples/second/animal. Each cycle of pressure change was analyzed using the following parameters: rising and falling slope determined between minimum and maximum pressures, the ratio of rising over falling slope, and the magnitude of the change between initial trough pressure and peak cycle pressure. Using these values (and observing the animals) the pressure cycles were characterized into normal breaths, forced exhalations (apparent by abdominal heaving), significant respiratory events (SREs; usually coughs, less often sneezes or gasps which were characterized by transient, extremely large pressure increases which were distinguishable from noise) and movement/noise with a PCAT 286 running a System V UNIX operating system. Dyspnea was defined as a significant, sustained increase in plethysmograph pressure which was associated with an observable shift to labored breathing in the animal.
(§2) During the course of a typical experiment in which airway responsiveness to various bronchoconstricting agents was examined, aerosols were delivered for 19 min (0.33 ml/min) using a DeVilbiss Ultraneb 99 ultrasonic nebulizer and animals monitored during this time. Prior to nebulization, 1 min of resting breathing was collected to establish a baseline pressure. […] The vehicle for nebulization of all bronchoconstrictive agents was phosphate buffered saline (pH 7.4) which elicited no respiratory effects itself. Putative tachykinin antagonists were administered either (i.v.) 20 min prior to onset of aerosol exposure or orally 1 hour prior to onset (to guinea pigs after an overnight fast).
Capsaicin aerosol is known to promote release of the tachykinins SP and NKA from sensory nerves in the airways of guinea pigs which may then act upon NK1 and NK2 receptors, respectively to elicit respiratory effects.

For experiment [1], the target named is T1, NK1 receptor (Cavia porcellus, UniProt P30547).
T1 construct: evaluated in guinea pig lungs; tissue Keystone Biologicals, Cleveland, OH; host or cells: guinea pig lung
T1 sequence (P30547 whole entry): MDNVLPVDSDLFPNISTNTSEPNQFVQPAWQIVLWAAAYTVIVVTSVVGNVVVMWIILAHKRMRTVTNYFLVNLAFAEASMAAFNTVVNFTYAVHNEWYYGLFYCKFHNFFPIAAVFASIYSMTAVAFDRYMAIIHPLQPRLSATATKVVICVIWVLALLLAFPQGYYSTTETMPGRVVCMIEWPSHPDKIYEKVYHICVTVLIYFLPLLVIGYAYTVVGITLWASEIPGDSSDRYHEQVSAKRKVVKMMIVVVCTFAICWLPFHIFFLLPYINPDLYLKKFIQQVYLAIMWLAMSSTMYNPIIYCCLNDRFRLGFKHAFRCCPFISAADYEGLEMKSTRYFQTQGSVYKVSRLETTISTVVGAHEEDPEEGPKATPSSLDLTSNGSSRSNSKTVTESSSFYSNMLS
Put plainly: Antagonism of SP-induced plasma protein extravasation in guinea pig trachea. The class given is in vivo. As to conditions: guinea pig, iv; i.v. 2 min prior to SP; mean (95% confidence limits); at least 3 doses, at least 4 animals per dose; read-out: ED50 for inhibition of SP-induced plasma protein extravasation. The protocol: SP-induced protein leakage through postcapillary venules was assessed by measuring Evans Blue dye accumulation in guinea pig trachea. Animals were anesthetized with pentobarbital then injected with Evans Blue dye (20 mg/kg, i.v., prepared in 0.9% NaCl solution). One minute after dye administration, the antagonist was administered (i.v.) followed by SP (0.3 nmole/kg, i.v.) and, after 5 min, excess dye removed from the circulation by transcardiac perfusion with 50 ml 0.9% NaCl solution. The trachea and primary bronchi were removed, blotted dry and weighed. Dye quantitation was performed spectrophotometrically ([…]) after extracting tissues in formamide for 24 hr at 50° C.. Values were subtracted from background (dye only, no agonist). ED50 (dose of compound which inhibits SP-induced plasma protein extravasation by 50%) was calculated from linear regression analysis.

In experiment [2] the target is T2, NK1 receptor (Homo sapiens, UniProt P25103).
T2 construct: antagonizes both NK1 (on UC11 cells); endogenous in cells; host or cells: UC11 cells
T2 sequence (P25103 whole entry): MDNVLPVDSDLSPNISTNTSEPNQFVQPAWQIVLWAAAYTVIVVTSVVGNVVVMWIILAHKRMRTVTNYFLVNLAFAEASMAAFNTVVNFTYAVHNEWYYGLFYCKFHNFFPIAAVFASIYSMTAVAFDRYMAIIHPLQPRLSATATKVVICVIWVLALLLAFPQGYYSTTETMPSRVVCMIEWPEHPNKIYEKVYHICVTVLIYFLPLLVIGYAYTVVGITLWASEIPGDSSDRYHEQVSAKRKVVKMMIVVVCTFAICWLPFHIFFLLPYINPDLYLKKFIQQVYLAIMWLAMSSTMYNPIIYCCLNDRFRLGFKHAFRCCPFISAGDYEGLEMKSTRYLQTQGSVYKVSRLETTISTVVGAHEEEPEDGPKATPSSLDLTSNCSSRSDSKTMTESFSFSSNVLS
Description: Antagonism of NK1 receptor mediated (SP-induced) phosphatidylinositol turnover in UC11 cells. The class given is cell-based. Conditions: for relative antagonism of NK1 and NK2 receptors (in words): PI turnover, UC11 (NK1) versus SKLKB82#3 (NK2) cells. The protocol: (§3) Tachykinin-mediated inositol phosphate accumulation was measured in UC11 or SKLKB82#3 cells in the presence and absence of NK1 or NK2 receptor antagonists, respectively. Tissues were incubated in Krebs-Henseleit buffer at 37° C. with 95% O2 -5% CO2 gassing. Tissues were then incubated with fresh buffer containing 100 μCi of myo-[2-3H(N)] inositol at 37° C. for 60 min with gentle gassing. After washing twice in 5 ml room temperature buffer containing 10 mM LiCl, tissues were incubated for 30 min at room temperature with a buffer change at 15 min. Buffer was removed and Krebs-Henseleit buffer (containing 40 μg/ml bacitracin, 4 μg/ml each of leupeptin and chymostatin, 0.1% bovine serum albumin and 10 mM each of thiorphan and LiCl) added. After 15 min, SP was added to UC11 cells or NKA to SKLKB82#3 cells at various concentrations to start the reaction. After incubation for 60 min at room temperature the reaction was terminated by addition of 930 μl chloroform: methanol (1:2 by volume) to each tube, followed by 310 μl chloroform and 310 μl doubly distilled water. Samples were vortexed, centrifuged, and 0.9 ml of the aqueous (top) phase removed and added to 2 ml ddH2 O. The mixture was vortexed and loaded onto a 50% Bio-Rad AG 1-X8 (formate form, 100-200 mesh) exchange column (Bio-Rad Laboratories, Hercules, Calif.). The columns were washed, in order, with: 1) 10 ml doubly distilled water, 2) 5 ml of 5 mM disodium tetraborate/60 mM sodium formate, and 3) 5 ml of 1M ammonium formate/0.1M formic acid. The third elution was collected and 1 ml counted in 7 ml scintillation fluid. A 50 μl aliquot of the organic (bottom) phase was removed, dried in a scintillation vial and counted in 7 ml scintillation fluid.
(§4) The ratio of DPM in the aqueous phase aliquot (total inositol phosphates) to the DPM in the 50 μl organic phase aliquot (total [^3 H]inositol incorporated) was calculated for each sample. Data are expressed as a percent of agonist-induced accumulation of [^3 H]-inositol phosphates over basal levels. The ratios in the presence of test compound and/or standards were compared to the ratios for control samples (i.e. no stimulating agonist). Dose-response graphs were constructed and the abilities of the test compounds to inhibit tachykinin-induced phosphatidyinositol turnover determined with the aid of a computer program. […] Data is expressed as percent stimulation of total inositol phosphate accumulation over basal levels and normalized to the maximum response produced by SP. […] Schild analysis is performed using dose response curves (such as those presented in FIGS. 1a and 1b) to obtain a value indicative of the strength of a competitive antagonist and is expressed as the pA2, which is the negative logarithm of the molar concentration of antagonist which reduces the effect of a dose of agonist to one-half of that expected at the dose of agonist.

Experiment [3] concerns the target T3, NK2 receptor (Bos taurus, UniProt P05363).
T3 construct: expressed in transfected cells; host or cells: SKLKB82#3 cells
T3 sequence (P05363 1-384): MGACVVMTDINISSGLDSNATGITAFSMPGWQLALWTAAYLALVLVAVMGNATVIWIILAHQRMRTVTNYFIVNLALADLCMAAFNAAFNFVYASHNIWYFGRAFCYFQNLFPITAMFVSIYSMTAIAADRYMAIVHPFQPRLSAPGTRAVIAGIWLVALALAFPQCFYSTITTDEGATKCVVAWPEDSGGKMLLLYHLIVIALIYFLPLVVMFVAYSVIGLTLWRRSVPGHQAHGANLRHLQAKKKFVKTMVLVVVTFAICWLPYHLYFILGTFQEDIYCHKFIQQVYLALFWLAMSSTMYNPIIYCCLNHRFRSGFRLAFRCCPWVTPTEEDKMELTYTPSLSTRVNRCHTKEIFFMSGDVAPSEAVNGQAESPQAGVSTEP
Description: Antagonism of NK2 receptor mediated (NKA-induced) phosphatidylinositol turnover in SKLKB82#3 cells. Conditions: SKLKB82#3 cells, NKA; Schild slope, mean (95% confidence limits). The class given is cell-based. The procedure:
as §3
as §4, with “The ratios in the presence of test compound and/or standards were compared to the ratios for control samples (i.e. no stimulating agonist).” left out

For experiment [4], the system named is NK2 receptor. Put plainly: Antagonism of NKA-induced respiratory effects in conscious guinea pigs. Conditions: for dyspnea incidence: i.v. 20 min prior to NKA aerosol (0.05%). The class given is in vivo, guinea pig. The procedure:
as §1, §2

Structures can show the parent of a compound that is named as a salt.

One may read the ED50 as the dose at which the effect has come halfway, by size or by number of responders. As for `COc1cc(C(=O)N2CCC(CCN3CCC(C(N)=O)(c4ccccc4)CC3)(c3ccc(Cl)c(Cl)c3)C2)cc(OC)c1OC` (racemic) [Example 3A, 1-[2-[3-(3,4-dichloro-phenyl)-1-(3,4,5-trimethoxy-benzoyl)-pyrrolidin-3-yl]-ethyl]-4-phenyl-piperidine-4-carboxylic acid amide hydrochloride], the dyspnea incidence in the experiment on NK1 and NK2 receptors (10 mg/kg, i.v. 20 min prior to capsaicin aerosol (0.001%)) is on record as 89%; in the experiment with NK1 and NK2 receptors (25 mg/kg, oral gavage 1 hr prior to capsaicin aerosol (0.001%)), 80%; in the experiment on NK1 and NK2 receptors (50 mg/kg, oral gavage 1 hr prior to capsaicin aerosol (0.001%)), 70%; with NK1 and NK2 receptors (100 mg/kg, oral gavage 1 hr prior to capsaicin aerosol (0.001%)), 50%. Besides, the “effect on capsaicin-induced respiratory effects (in words)” value is “attenuate capsaicin-induced respiratory effects” in the experiment with NK1 and NK2 receptors (intravenous); “antagonize the effects of capsaicin aerosol when administered orally” in the experiment on NK1 and NK2 receptors (oral). The ED50 at NK1 receptor [1] was 0.17 mg/kg. The “relative antagonism of NK1 and NK2 receptors (in words)” value on NK1 receptor [2] was “antagonized both NK1 and NK2 receptors by nearly equivalent amounts”. The compound also displayed an NK-1 receptor slope on NK1 receptor [2] (UC11 cells, SP, Schild slope, mean (95% confidence limits)) of 0.90. Moreover, the NK-2 receptor slope at NK2 receptor [3] is recorded as 0.73.
For `COc1cccc(OC)c1C(=O)N1CCC(CCN2CCC(C(N)=O)(c3ccccc3)CC2)(c2ccc(Cl)c(Cl)c2)C1` (stereo not drawn) [Example 5, 1-[2-[3-(3,4-dichloro-phenyl)-1-(2,6-dimethoxy-benzoyl)-pyrrolidin-3-yl]-ethyl]-4-phenyl-piperidine-4-carboxylic acid amide], the “effect on capsaicin-induced respiratory effects (in words)” value in the experiment with NK1 and NK2 receptors (oral) is listed as “antagonize the effects of capsaicin aerosol when administered orally”.
With `COc1cccc(OC)c1C(=O)N1CCC(CCN2CCC(C(N)=O)(c3ccccc3)CC2)(c2ccc(Cl)c(Cl)c2)C1` (stereo not drawn) [Example 5A, 1-[2-[3-(3,4-dichloro-phenyl)-1-[2,6-dimethoxy-benzoyl)-pyrrolidin-3-yl]-ethyl]-4-phenylpiperidine-4-carboxylic acid amide hydrochloride], the dyspnea incidence in the experiment on NK2 receptor [4] (5 mg/kg) was 60%; with NK2 receptor [4] (10 mg/kg), 54%. Moreover, the “effect on NKA-induced respiratory effects (in words)” value in the experiment with NK2 receptor [4] (NKA aerosol, dose dependent) is recorded as “reduced the effects of NKA aerosol”. Besides, the “relative antagonism of NK1 and NK2 receptors (in words)” value at NK1 receptor [2] is “antagonized both NK1 and NK2 receptors by nearly equivalent amounts”.
